Results taken from PMC11494662, “Insight into the Course of the Ferrier Rearrangement Used to Obtain Untypical Diosgenyl Saponins” (The Journal of Organic Chemistry, 2024).
pIC50: −log10 of the molar value. In brackets after ≈: the same amount, converted by molar mass.

How the values were obtained:
E. faecium ATCC 29212 = assay: MIC, broth dilution method; type: cell-based; details: Enterococcus faecium, ATCC29212; MHB II, 18 h, 37 °C; read-out: Minimum inhibitory concentration E. faecium ATCC 29212
Protocol: (§1) MIC was determined with the dilution method in Mueller–Hinton II broth (MHB II) on 96-well polystyrene plates. The reference strains (Polish Academy of Sciences, Wroclaw, Poland) of Gram-positive bacteria (Enterococcus faecium ATCC 29,212, S. aureus ATCC 6538, S. aureus ATCC 43,300, S. aureus ATCC 12,598, S. aureus ATCC 25,923, S. aureus, ATCC 33,591, Staphylococcus epidermidis ATCC 14,990) and Gram-negative bacteria (Acinetobacter baumanii ATCC 23,506, Escherichia coli ATCC 25,922, Klebsiella pneumoniae ATCC 700,603, Pseudomonas aeruginosa ATCC 9027) were suspended in MHB II medium to initial inoculum of 10^5 cfu/mL. The microbes were exposed to graded concentrations of tested compounds (range 0.5–256 mg/L) for 18 h at 37 °C under aerobic conditions. The compounds were dissolved in DMSO and then diluted with PBS. […] MIC was taken as the lowest concentration at which no microbial growth was observed. The experiments were performed in triplicate.

S. aureus ATCC 6538 = assay: MIC, broth dilution method; type: cell-based; details: Staphylococcus aureus, ATCC6538; MHB II, 18 h, 37 °C; read-out: Minimum inhibitory concentration S. aureus ATCC 6538
Protocol: as §1

S. aureus ATCC 25923 = assay: MIC, broth dilution method; type: cell-based; details: Staphylococcus aureus, ATCC25923; MHB II, 18 h, 37 °C; read-out: Minimum inhibitory concentration S. aureus ATCC 25923
Protocol: as §1

S. aureus ATCC 33591 = assay: MIC, broth dilution method; type: cell-based; details: Staphylococcus aureus, ATCC33591; MHB II, 18 h, 37 °C; read-out: Minimum inhibitory concentration S. aureus ATCC 33591
Protocol: as §1

S. aureus ATCC 12598 = assay: MIC, broth dilution method; type: cell-based; details: Staphylococcus aureus, ATCC12598; MHB II, 18 h, 37 °C; read-out: Minimum inhibitory concentration S. aureus ATCC 12598
Protocol: as §1

S. aureus ATCC 43300 = assay: MIC, broth dilution method; type: cell-based; details: Staphylococcus aureus, ATCC43300; MHB II, 18 h, 37 °C; read-out: Minimum inhibitory concentration S. aureus ATCC 43300
Protocol: as §1

[1] = tested on: S. epidermidis ATCC 14990; assay: MIC, broth dilution method; type: cell-based; details: Staphylococcus epidermidis, ATCC14990; MHB II, 18 h, 37 °C; read-out: Minimum inhibitory concentration S. epidermidis ATCC 14990
Protocol: as §1

[2] = tested on: breast cancer cells (MCF-7 line); assay: MTT cytotoxicity assay, MCF7; type: cell-based, human; details: for pIC50: Homo sapiens; for pIC50 / IC50 MCF7: MCF7 cells, 48 h treatment, MTT; for SI MCF7 (selectivity index): ratio of IC50 for normal cell line (HaCaT) to IC50 for MCF7, 48 h
Protocol: (§2) The MTT assay was performed to specify the cytotoxicity of 7–12 and 13–18 against prostate cancer cells (PC3 line), breast cancer cells (MCF7 line), and human keratinocytes (HaCaT line). The mentioned cell lines were assayed by exposing them for 48 h to a medium containing the studied compounds over a wide range of concentrations. The IC50 values (dose of the compound which caused a 50% reduction of cell viability) and the selectivity indexes (SI), which show the ratio of IC50 for normal cell line to IC50 for cancer cell line, are shown in Table S2. An MTT assay was performed to specify the cytotoxicity of the studied compounds against breast cancer cells (MCF-7 line, ATCC), prostate cancer cells (PC3 line, ATCC) and human keratinocytes (HaCaT line, CLS). The MCF-7 cell line was cultured in an RPMI 1640 medium (Gibco, Thermo Fisher Scientific), the PC3 cell line in a F-12K medium (Gibco, Thermo Fisher Scientific), and the HaCaT cell line in a high-glucose DMEM (Gibco, Thermo Fisher Scientific). Each medium was supplemented with 10% fetal bovine serum (Gibco, Thermo Fisher Scientific) and antibiotics (penicillin and streptomycin, Gibco, Thermo Fisher Scientific). Cells were seeded at a density of 4000 per well into 96-well plates and incubated at 37 °C in a 5% CO2 atmosphere. The cells were treated with studied compounds in a concentration range of 0.1–100 μg/mL or with a vehicle (1% DMSO) as a control and subsequently incubated for 48 h. Thereafter, the MTT salt solution (3-(4,5-dimethylthiazol-2-yl)-2,5-diphenyltetrazolium bromide, VWR) was added at a concentration of 4 mg/mL (25 μL per well), and the obtained product (formazan) after 3 h of incubation was dissolved in DMSO. An EnSpire microplate reader (PerkinElmer) was used to measure absorbance at 570 nm (the reference wavelength was 660 nm). The viability of the control cells was taken as 100%. Three independent experiments were conducted in triplicate. Statistical analysis of the results and estimation of IC50 values were performed using GraphPad Prism 7 software.

[3] = tested on: prostate cancer cells (PC3 line); assay: MTT cytotoxicity assay, PC3; type: cell-based, human; details: for pIC50: Homo sapiens, PC-3; for pIC50 / IC50 PC3: PC3 cells, 48 h treatment, MTT; for SI PC3 (selectivity index): ratio of IC50 for normal cell line (HaCaT) to IC50 for PC3, 48 h
Protocol: as §2

[4] = tested on: human keratinocytes (HaCaT line); assay: MTT cytotoxicity assay, HaCaT; type: cell-based; details: HaCaT normal cells, 48 h treatment; for pIC50: Homo sapiens
Protocol: as §2

SMILES | MIC (E. faecium ATCC 29212) [µg/mL] | MIC (S. aureus ATCC 6538) [µg/mL] | MIC (S. aureus ATCC 25923) [µg/mL] | MIC (S. aureus ATCC 33591) [µg/mL] | MIC (S. aureus ATCC 12598) [µg/mL] | MIC (S. aureus ATCC 43300) [µg/mL] | MIC [1] [µg/mL] | pIC50 [2] | SI MCF7 (selectivity index) [2] | pIC50 [3] | SI PC3 (selectivity index) [3] | pIC50 [4] | further results
C[C@@H]1CC[C@@]2(OC1)O[C@H]1C[C@H]3[C@@H]4CC=C5C[C@@H](O[C@H]6C=C[C@@H](O)[C@H](C)O6)CC[C@]5(C)[C@H]4CC[C@]3(C)[C@H]1[C@@H]2C [9α, Diosgenyl 2,3,6-Trideoxy-α-L-erythro-hex-2-enopyranoside] | > 256 | > 256 | > 256 | > 256 | > 256 | > 256 | > 256 | 3.74 | 0.24 | 4.60 | 1.71 | 4.36 | 
C[C@@H]1CC[C@@]2(OC1)O[C@H]1C[C@H]3[C@@H]4CC=C5C[C@@H](O[C@H]6CC[C@H](O)[C@H](C)O6)CC[C@]5(C)[C@H]4CC[C@]3(C)[C@H]1[C@@H]2C [16α, Diosgenyl 2,3,6-Trideoxy-α-L-threo-hexopyranoside] | > 256 | > 256 | > 256 | > 256 | > 256 | > 256 | > 256 | 4.44 | 0.84 | 4.52 | 1.02 | 4.51 | 
C[C@@H]1CC[C@@]2(OC1)O[C@H]1C[C@H]3[C@@H]4CC=C5C[C@@H](O[C@H]6C=C[C@H](O)CO6)CC[C@]5(C)[C@H]4CC[C@]3(C)[C@H]1[C@@H]2C [11β] | > 256 | > 256 | > 256 | > 256 | > 256 | > 256 | > 256 |  |  |  |  |  | IC50 MCF7 [2]: completely inactive; IC50 MCF7 ([2]; listed as 11): inactive; IC50 PC3 [3]: completely inactive; IC50 PC3 ([3]; listed as 11): inactive; IC50 HaCaT [4]: completely inactive; IC50 HaCaT ([4]; listed as 11): inactive
C[C@@H]1CC[C@@]2(OC1)O[C@H]1C[C@H]3[C@@H]4CC=C5C[C@@H](OC6CC[C@H](O)CO6)CC[C@]5(C)[C@H]4CC[C@]3(C)[C@H]1[C@@H]2C (stereo partly drawn) [17β] | > 256 | 256 (≈ 497 µM) | > 256 | > 256 | > 256 | > 256 | > 256 | 4.58 | 1.29 | 4.63 | 1.46 | 4.47 | 
C[C@@H]1CC[C@@]2(OC1)O[C@H]1C[C@H]3[C@@H]4CC=C5C[C@@H](O[C@@H]6C=C[C@H](O)[C@@H](CO)O6)CC[C@]5(C)[C@H]4CC[C@]3(C)[C@H]1[C@@H]2C [7α, Diosgenyl 2,3-Dideoxy-α-D-erythro-Hex-2-enopyranoside] | 256 (≈ 472 µM) | 256 (≈ 472 µM) | > 256 | > 256 | > 256 | > 256 | 256 (≈ 472 µM) | 4.25 | 0.36 | 4.77 | 1.20 | 4.70 | 
C[C@@H]1CC[C@@]2(OC1)O[C@H]1C[C@H]3[C@@H]4CC=C5C[C@@H](O[C@@H]6CC[C@@H](O)CO6)CC[C@]5(C)[C@H]4CC[C@]3(C)[C@H]1[C@@H]2C [18β] | > 256 | > 256 | > 256 | > 256 | > 256 | > 256 | > 256 | 4.57 | ca. 2 | 4.54 | ca. 2 | 4.22 | SI MCF7 (selectivity index) ([2]; listed as 18): 2.23; SI PC3 (selectivity index) ([3]; listed as 18): 2.07
C[C@@H]1CC[C@@]2(OC1)O[C@H]1C[C@H]3[C@@H]4CC=C5C[C@@H](O[C@@H]6C=C[C@@H](O)[C@@H](CO)O6)CC[C@]5(C)[C@H]4CC[C@]3(C)[C@H]1[C@@H]2C [8α, Diosgenyl 2,3-Dideoxy-α-D-threo-hex-2-enopyranoside] | > 256 | > 256 | > 256 | > 256 | > 256 | > 256 | > 256 | 4.35 | 0.49 | 4.67 | 1.04 | 4.65 | 
C[C@@H]1CC[C@@]2(OC1)O[C@H]1C[C@H]3[C@@H]4CC=C5C[C@@H](O[C@@H]6CC[C@H](O)[C@@H](CO)O6)CC[C@]5(C)[C@H]4CC[C@]3(C)[C@H]1[C@@H]2C [13α, Diosgenyl 2,3-Dideoxy-α-D-erythro-hexopyranoside] | > 256 | > 256 | > 256 | > 256 | > 256 | > 256 | > 256 | 4.41 | 0.56 | 4.65 | 0.96 | 4.67 | 
C[C@@H]1CC[C@@]2(OC1)O[C@H]1C[C@H]3[C@@H]4CC=C5C[C@@H](O[C@@H]6C=C[C@@H](O)CO6)CC[C@]5(C)[C@H]4CC[C@]3(C)[C@H]1[C@@H]2C [12β] | > 256 | 256 (≈ 499 µM) | > 256 | > 256 | > 256 | > 256 | > 256 | 4.45 | ca. 2 | 4.56 |  | 4.24 | SI MCF7 (selectivity index) ([2]; listed as 12): 1.62
C[C@@H]1CC[C@@]2(OC1)O[C@H]1C[C@H]3[C@@H]4CC=C5C[C@@H](O[C@H]6CC[C@@H](O)[C@H](C)O6)CC[C@]5(C)[C@H]4CC[C@]3(C)[C@H]1[C@@H]2C [15α, Diosgenyl 2,3,6-Trideoxy-α-L-erythro-hexopyranoside] | > 256 | 256 (≈ 484 µM) | 256 (≈ 484 µM) | > 256 | > 256 | > 256 | > 256 | 4.06 |  | 4.58 |  | 4.25 | 
